# Patent US20130252930A1 (BIOMARIN PHARMACEUTICAL INC., priority 2010, published 2013)
# Molecular target: T1, CYP17 (human testicular microsome) (Homo sapiens, UniProt P05093)
# T1 construct: using microsomal fraction from human testis (Celsis Cat #S00110) as the enzyme source; tissue Celsis S00110; host or cells: human testis microsomal fraction
# T1 sequence (P05093 1-508): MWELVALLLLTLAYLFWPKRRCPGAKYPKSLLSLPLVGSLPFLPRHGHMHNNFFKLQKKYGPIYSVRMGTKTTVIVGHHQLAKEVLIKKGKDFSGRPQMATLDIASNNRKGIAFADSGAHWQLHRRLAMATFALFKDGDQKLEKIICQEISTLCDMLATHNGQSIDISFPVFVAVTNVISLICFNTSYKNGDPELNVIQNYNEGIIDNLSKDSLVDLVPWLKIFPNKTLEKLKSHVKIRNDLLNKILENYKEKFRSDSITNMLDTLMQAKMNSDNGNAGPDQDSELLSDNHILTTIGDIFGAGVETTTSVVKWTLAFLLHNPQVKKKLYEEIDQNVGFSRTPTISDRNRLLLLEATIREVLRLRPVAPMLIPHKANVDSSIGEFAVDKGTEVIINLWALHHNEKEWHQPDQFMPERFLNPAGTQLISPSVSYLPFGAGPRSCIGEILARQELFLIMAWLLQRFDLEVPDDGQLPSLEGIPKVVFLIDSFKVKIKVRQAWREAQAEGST
# Assay: CYP17 enzymatic assay (IC50) (Biological Example 4)
# Assay type: biochemical
# Details: human testicular microsome, DHEA by ELISA; read-out: Biological Example No. 4: CYP17 enzymatic assay IC50
row,IC50,Structure (SMILES)
1,< 11 nM,"CCCOc1cncc(C2=CC[C@H]3[C@@H]4CCN5C(=O)CCCC[C@]5(C)[C@H]4CC[C@]23C)c1 [Compound 42, (11aR,13aS)-11a,13a-dimethyl-1-(5-propoxypyridin-3-yl)-3b,4,5,8,9,10,11,11a,11b,12,13,13a-dodecahydro-3H-azepino[2,1-a]cyclopenta[f]isoquinolin-7(3aH)-one]"
2,< 11 nM,"C=Cc1cncc(C2=CC[C@H]3[C@@H]4CCN5C(=O)CCCC[C@]5(C)[C@H]4CC[C@]23C)c1 [Compound 43, (11aR,13aS)-11a,13a-dimethyl-1-(5-vinylpyridin-3-yl)-3b,4,5,8,9,10,11,11a,11b,12,13,13a-dodecahydro-3H-azepino[2,1-a]cyclopenta[f]isoquinolin-7(3aH)-one]"

# Molecular target: T1, CYP17 (human testicular microsome)
# Assay: CYP17 enzymatic assay (% inhibition at 10 nM), version 1 (Biological Example 5)
# Assay type: biochemical
# Details: 10 nM compound, DHEA by ELISA, read-out: Biological Example No. 5: CYP17 percent inhibition at 10 nM (version 1)
row,inhibition at 0.01 µM,Structure (SMILES)
1,50 to 80%,"CCCOc1cncc(C2=CC[C@H]3[C@@H]4CCN5C(=O)CCCC[C@]5(C)[C@H]4CC[C@]23C)c1 [Compound 42, (11aR,13aS)-11a,13a-dimethyl-1-(5-propoxypyridin-3-yl)-3b,4,5,8,9,10,11,11a,11b,12,13,13a-dodecahydro-3H-azepino[2,1-a]cyclopenta[f]isoquinolin-7(3aH)-one]"
2,50 to 80%,"C=Cc1cncc(C2=CC[C@H]3[C@@H]4CCN5C(=O)CCCC[C@]5(C)[C@H]4CC[C@]23C)c1 [Compound 43, (11aR,13aS)-11a,13a-dimethyl-1-(5-vinylpyridin-3-yl)-3b,4,5,8,9,10,11,11a,11b,12,13,13a-dodecahydro-3H-azepino[2,1-a]cyclopenta[f]isoquinolin-7(3aH)-one]"
3,1 to 50%,"C[C@]12CCCCC[C@@H]1CC[C@@H]1[C@@H]2CC[C@]2(C)C(c3cnccc3Cl)=CC[C@@H]12 [Compound 96, 4-chloro-3-((3aS,3bR,5aR,10aS,10bS,12aS)-10a,12a-dimethyl-3,3a,3b,4,5,5a,6,7,8,9,10,10a,10b,11,12,12a-hexadecahydrocyclohepta[a]cyclopenta[f]naphthalen-1-yl)pyridine]"
4,1 to 50%,"CCOc1cncc(C2=CC[C@H]3[C@@H]4CCC5N(C)C(=O)COC[C@]5(C)[C@H]4CC[C@]23C)c1 (stereo partly drawn) [Compound 99, (5aR,5bS,7aS,10aS,10bS)-8-(5-ethoxypyridin-3-yl)-1,5a,7a-trimethyl-5,5a,5b,6,7,7a,10,10a,10b,11,12,12a-dodecahydro-1H-cyclopenta[5,6]naphtho[2,1-e][1,4]oxazepin-2(3H)-one]"
5,50 to 80%,"C[C@]12CCNC(=O)CC[C@@H]1CC[C@@H]1[C@@H]2CC[C@]2(C)C(c3cccnc3)=CC[C@@H]12 [Compound 101, (6aS,6bS,8aS,11aS,11bR,13a5)-6a,8a-dimethyl-9-(pyridin-3-yl)-4,5,6,6a,6b,7,8,8a,11,11a,11b,12,13,13a-tetradecahydro-1H-cyclopenta[5,6]naphtho[1,2-d]azocin-3(2H)-one]"
6,1 to 50%,"C[C@]12CC(=O)C[C@@H]1CC[C@@H]1[C@@H]2CC[C@]2(C)C(n3ccnn3)=CC[C@@H]12 [Compound 110, (3aS,5aS)-3a,5a-dimethyl-6-(1H-1,2,3-triazol-1-yl)-3,3a,3b,4,5,5a,8,8a,8b,9,10,10a-dodecahydrodicyclopenta[a,f]naphthalen-2(1H)-one]"
7,50 to 80%,"CCOc1cncc(C2=CC[C@H]3[C@@H]4CC[C@H]5CCOCC[C@]5(C)[C@H]4CC[C@]23C)c1 [Compound 124, 3-((5aS,5bS,7aS,10aS,10bR,12aS)-5a,7a-dimethyl-2,4,5,5a,5b,6,7,7a,10,10a,10b,11,12,12a-tetradecahydro-1H-cyclopenta[5,6]naphtho[1,2-d]oxepin-8-yl)-5-ethoxypyridine]"
8,50 to 80%,"C[C@]12CCC(=O)NCC1CCC1C2CC[C@]2(C)C(n3ccnc3)=CCC12 (stereo partly drawn) [Compound 136, (5aR,7aS)-8-(1H-imidazol-1-yl)-5a,7a-dimethyl-1,2,5,5a,5b,6,7,7a,10,10a,10b,11,12,12a-tetradecahydrocyclopenta[5,6]naphtho[2,1-c]azepin-3(4H)-one]"
9,1 to 50%,"C[C@]12CCC(=O)NC[C@@H]1CC[C@@H]1[C@@H]2CC[C@]2(C)C(n3ccnn3)=CC[C@@H]12 [Compound 138, (5aR,5bS,7aS,10aS,10bR,12aR)-5a,7a-dimethyl-8-(1H-1,2,3-triazol-1-yl)-1,2,5,5a,5b,6,7,7a,10,10a,10b,11,12,12a-tetradecahydrocyclopenta[5,6]naphtho[2,1-c]azepin-3(4H)-one]"
10,1 to 50%,"C[C@]12CCNCCC1CCC1C2CC[C@]2(C)C(n3ccnn3)=CCC12 (stereo partly drawn) [Compound 139, (5aS,7aS)-5a,7a-dimethyl-8-(1H-1,2,3-triazol-1-yl)-1,2,3,4,5,5a,5b,6,7,7a,10,10a,10b,11,12,12a-hexadecahydrocyclopenta[5,6]naphtho[1,2-d]azepine]"
11,1 to 50%,"C[C@]12CCCNCC1CCC1C2CC[C@]2(C)C(n3ccnn3)=CCC12 (stereo partly drawn) [Compound 140, (5aR,7aS)-5a,7a-dimethyl-8-(1H-1,2,3-triazol-1-yl)-1,2,3,4,5,5a,5b,6,7,7a,10,10a,10b,11,12,12a-hexadecahydrocyclopenta[5,6]naphtho[2,1-c]azepine]"
12,< 1%,"CC(=O)N1CCC[C@@]2(C)[C@@H](CC[C@@H]3[C@@H]2CC[C@]2(C)C(n4ccnn4)=CC[C@@H]32)C1 [Compound 141, 1-((5aR,5bS,7aS,10aS,10bR,12aR)-5a,7a-dimethyl-8-(1H-1,2,3-triazol-1-yl)-3,4,5,5a,5b,6,7,7a,10,10a,10b,11,12,12a-tetradecahydrocyclopenta[5,6]naphtho[2,1-c]azepin-2(1H)-yl)ethanone]"
13,1 to 50%,COc1cncc(C2=CC[C@H]3[C@@H]4CCC5=CCN(C)CC[C@]5(C)[C@H]4CC[C@]23C)c1 [Compound 148]
14,1 to 50%,CCCOc1cncc(C2=CC[C@H]3[C@@H]4CCC5=CCN(C)CC[C@]5(C)[C@H]4CC[C@]23C)c1 [Compound 149]
15,1 to 50%,CCc1cncc(C2=CC[C@H]3[C@@H]4CCC5=CCN(C)CC[C@]5(C)[C@H]4CC[C@]23C)c1 [Compound 150]
16,1 to 50%,CN1CC[C@@]2(C)C(=CC1=O)CC[C@@H]1[C@@H]2CC[C@]2(C)C(n3cnc4ccccc43)=CC[C@@H]12 [Compound 155]
17,50 to 80%,"C[C@]12CC[C@H]3[C@@H](CC[C@H]4CNC(=O)CC[C@@]43C)C1=CC=C2c1cccnc1 [Compound 166, (5aR,5bS,7aS,10bR,12aR)-5a,7a-dimethyl-8-(pyridin-3-yl)-1,2,5,5a,5b,6,7,7a,10b,11,12,12a-dodecahydrocyclopenta[5,6]naphtho[2,1-c]azepin-3(4H)-one]"
18,1 to 50%,"C[C@]12CC[C@H]3[C@@H](CCC4CC(=O)NCC[C@@]43C)C1=CC=C2n1ccnn1 (stereo partly drawn) [Compound 178, (5aS,5bS,7aS,10bR)-5a,7a-dimethyl-8-(1H-1,2,3-triazol-1-yl)-3,4,5,5a,5b,6,7,7a,10b,11,12,12a-dodecahydrocyclopenta[5,6]naphtho[1,2-d]azepin-2(1H)-one]"
19,1 to 50%,"C[C@]12CC[C@H]3[C@@H](CCC4CNC(=O)CC[C@@]43C)C1=CC=C2n1ccnn1 (stereo partly drawn) [Compound 179, (5aR,5bS,7aS,10bR)-5a,7a-dimethyl-8-(1H-1,2,3-triazol-1-yl)-1,2,5,5a,5b,6,7,7a,10b,11,12,12a-dodecahydrocyclopenta[5,6]naphtho[2,1-c]azepin-3(4H)-one]"
20,1 to 50%,"Cc1cncc(C2=CC[C@H]3[C@@H]4CCC5N(C)C(=O)COC[C@]5(C)[C@H]4CC[C@]23C)c1 (stereo partly drawn) [Compound 445, (5aR,5bS,7aS,10aS,10bS)-1,5a,7a-trimethyl-8-(5-methylpyridin-3-yl)-5,5a,5b,6,7,7a,10,10a,10b,11,12,12a-dodecahydro-1H-cyclopenta[5,6]naphtho[2,1-e][1,4]oxazepin-2(3H)-one]"
21,1 to 50%,"Cc1cncc(C2=CCC3C4CCC5=CN(C)CCC[C@]5(C)C4CC[C@]23C)c1 (stereo partly drawn) [Compound 446, (5aR,7aS)-2,5a,7a-trimethyl-8-(5-methylpyridin-3-yl)-2,3,4,5,5a,5b,6,7,7a,10,10a,10b,11,12-tetradecahydrocyclopenta[5,6]naphtho[2,1-c]azepine]"

# Same assay, conditions: compound at 10 nM, read-out: CYP17 enzymatic assay % inhibition at 10 nM (Biological Example No. 5)
row,Structure (SMILES),inhibition at 0.01 µM
1,"C[C@]12CC[C@H]3[C@@H](CC[C@H]4CNC(=O)CC[C@@]43C)C1=CC=C2n1ccnc1 [Compound 448, (5aR,5bS,7aS,10bR,12aR)-8-(1H-imidazol-1-yl)-5a,7a-dimethyl-1,2,5,5a,5b,6,7,7a,10b,11,12,12a-dodecahydrocyclopenta[5,6]naphtho[2,1-c]azepin-3(4H)-one]",50 to 80%
2,"COC1CC[C@@]2(C)[C@@H](CC[C@@H]3[C@@H]2CC[C@]2(C)C(c4cccnc4)=CC[C@@H]32)C1 (stereo partly drawn) [Compound 449, 3-((5S,8R,9S,10S,13S,14S)-3-methoxy-10,13-dimethyl-2,3,4,5,6,7,8,9,10,11,12,13,14,15-tetradecahydro-1H-cyclopenta[a]phenanthren-17-yl)pyridine]",1 to 50%
3,"COC1CC[C@@]2(C)[C@@H](CC[C@@H]3[C@@H]2CC[C@]2(C)C(c4cncc(C)c4)=CC[C@@H]32)C1 (stereo partly drawn) [Compound 450, 3-((5S,8R,9S,10S,13S,14S)-3-methoxy-10,13-dimethyl-2,3,4,5,6,7,8,9,10,11,12,13,14,15-tetradecahydro-1H-cyclopenta[a]phenanthren-17-yl)-5-methylpyridine]",1 to 50%
4,"COC1CC[C@@]2(C)[C@@H](CC[C@@H]3[C@@H]2CC[C@]2(C)C(n4ccnn4)=CC[C@@H]32)C1 (stereo partly drawn) [Compound 452, 1-((5S,8R,9S,10S,13S,14S)-3-methoxy-10,13-dimethyl-2,3,4,5,6,7,8,9,10,11,12,13,14,15-tetradecahydro-1H-cyclopenta[a]phenanthren-17-yl)-1H-1,2,3-triazole]",1 to 50%
